Measured values published in patent publication US20240051921A1, “CRYSTALLINE FORM OF A PHENOLIC TRPV1 AGONIST PRODRUG” (Concentric Analgesics, Inc., priority 2020, published 2024).

Test: Dynamic vapor sorption (DVS) test, form stability as a function of relative humidity
Assay type: physicochemical
Conditions: 25° C.
Description: DVS test was performed using an SMS (Surface Measurement Systems) DVS Intrinsic instrument. The relative humidity at 25° C. were calibrated against deliquescence point of LiCl, Mg(NO3)2 and KCl. The following instrument parameters were used:
DVS test was performed on crystalline Compound 1, Form 1, to investigate its form stability as a function of relative humidity. The DVS test was first conducted at 25° C. with humidity cycled between 0% RH-95% RH-0% RH.

CNCC1CCCCN1C(=O)Oc1ccc(CNC(=O)CCCC/C=C/C(C)C)cc1OC.Cl (stereo not drawn) [Compound 1, Form 1, (E)-2-methoxy-4-((8-methylnon-6-enamido)methyl)phenyl 2-((methylamino)methyl)piperidine-1-carboxylate hydrochloride]
crystal form change before and after DVS test (XRPD) (0% RH-95% RH-0% RH, checked by XRPD): no form change occurred | moisture content (DVS) (at 95% RH, cycle 0% RH-95% RH-0% RH): 16.5 % wt | moisture content, relative stable platform (DVS) (between 20% RH and 70% RH): ~3.5 % wt
